Source: publication PMC8480901 (PLoS ONE, 2021)
Several values for one entry are separate records, joined by “and”; a condition that tells them apart may be missing. Equal values may be shown once. Read-outs that look alike come from different tables or passages of the source.

Legend:
human neutrophils = assay: Cytotoxicity in human neutrophils (CellTiter Glo); format: cell-based
Protocol: (§1) For the chemotaxis and cytotoxicity evaluations, average relative light unit values were calculated from all untreated vehicle samples and, for each sample, percentage of vehicle value was calculated. The tested compound was considered cytotoxic if reduction from untreated vehicle was ≥20%.

[1] = test system: IL-8–activated human neutrophils; assay: Chemotaxis of IL-8–activated human neutrophils (transwell, CellTiter Glo); format: cell-based; details: for Neutrophilic chemotaxis, RLU, Mean / Neutrophilic chemotaxis: % reduction / Neutrophilic chemotaxis, RLU, single replicates: IL-8; for Neutrophilic chemotaxis, RLU, single replicates: listed as Lef
Description: Buffy coat (blood sample fraction comprising white blood cells and platelets) from whole blood was obtained from a healthy adult volunteer at the Croatian Institute of Transfusion Medicine (CITM; Zagreb, Croatia). The CITM ethics committee approved the blood collection process, and the volunteer provided written informed consent prior to blood collection. Neutrophils were isolated from the buffy coat, an aliquot of which was used for cell counting via hematologic analyzer (X500i; Sysmex). […] The diluted buffy coat was drawn into sterile 50-mL syringes and incubated for 30 minutes at RT. Following incubation, the upper layer of leukocyte-rich plasma (35 mL) was decanted into a new sterile 50-mL conical centrifuge tube, carefully layered onto 15 mL of Lymphoprep (Axis-Shield Diagnostics, Ltd., Dundee, UK) and centrifuged at 400×g (brake turned off) for 35 minutes at RT. The supernatant and mononuclear ring were discarded, and the pellet was resuspended in 10 mL of cold sterile MilliQ water. […] Resuspended neutrophils were counted via Sysmex X500i hematologic analyzer.
All test compounds were reconstituted in DMSO (Sigma-Aldrich Chemie GmbH) to 100-mM stock concentrations, taking into consideration and correcting for salt and purity. A 30-mM stock solution of reference compound Sch527123 (MedChemExpress, Monmouth Junction, NJ, USA) was diluted to 10 mM with DMSO.
DMSO was used as vehicle. […] The reference compound was tested at concentrations of 0.003, 0.01, 0.03, 0.1, 0.3, 1, 3, and 10 μM. All compounds were tested in triplicate, and the final DMSO concentration was 0.1% per well.
Test and reference compound working solutions were then added (20 μL/well) for a 10-fold dilution to final testing concentrations. Compounds and cells were mixed by gentle pipetting, and the plate was pre-incubated for 30 minutes at RT with gentle mixing by pipetting.
Negative control wells received 180 μL of migration medium alone. To all wells, 20 μL of compound working solutions or DMSO vehicle was added. Once pre-incubation of cells with compounds was complete, the transwell inserts were carefully placed on the receiver plate, with caution to avoid air bubble formation, which could prevent cell migration. To the upper wells, 75 μL of cell suspension (375,000 cells/well) was added, taking care not to tear the membrane with pipette tips.
After incubation, the number of cells that migrated to the lower wells was quantified by removing the Transwell insert and adding 200 μL of CellTiter Glo reagent (CellTiter-Glo Luminescent Cell Viability Assay, Promega, Madison, WI, USA) to each lower well to quantify the amount of adenosine triphosphate (ATP) present, signaling the presence of metabolically active cells. The plate was incubated for 10 minutes in the dark at RT, followed by transferring 150 μL of solution into wells of a white 96-well plate (Lumitrac 200; Greiner Bio-One International GmbH, Kremsmunster, Austria).
as §1

J774.2 mouse macrophages = assay: Cytotoxicity in J774.2 mouse macrophages (adenylate kinase release, ToxiLight); format: cell-based; details: for cell viability: J774.2 cells; for fold-change of adenylate kinase release at test concentration vs vehicle control, Mean ± SEM: J774.2 mouse macrophages, n=2
Protocol: The effect of t est compounds on cell viabilit y of J 774.2 macrophages and human PBMCs […]
was determined b y comp aring th e aden yl ate kinas e signal obtain ed in the p resence of diff er ent concentrations of compounds with those obtained in DMSO (vehicle) control. Signals were […]
divided,and the results were ex pressed as fold-change versus v ehicle con trol .

[2] = Pharmacokinetics in plasma and epithelial lining fluid of mice after a single SC dose; format: in vivo, BALB/c mice; details: for AUC(0-t): read-out: AUC0-24h, mean±SEM; for Cmax: read-out: Cmax, mean±SEM
Protocol: Pharmacokinetic parameters were evaluated as previously described. […] Plasma samples were analyzed by liquid chromatography with […] mass spectrometry (Q Exactive Plus; Thermo Fisher Scientific).
Area under the curve (AUC) values were determined using the linear trapezoidal method.

[3] = female, BALB/c, mouse, epithelial lining fluid (ELF), ELF, mice, single 35 mg/kg SC
[4] = female, BALB/c, mouse, plasma, mice, single 35 mg/kg SC

## C=C[C@]1(C)C[C@@H](OC(=O)CS[C@@H]2CC[C@@H](N)C[C@H]2O)[C@]2(C)[C@H](C)CC[C@]3(CCC(=O)[C@H]32)[C@@H](C)[C@@H]1O [Lefamulin]
Human neutrophils; 0.03 µM, n=3, percentage of RLU
  % viability at test concentration vs vehicle control, Mean ± SEM: 105 ± 1.36%
Human neutrophils; 0.1 µM, n=3
  % viability at test concentration vs vehicle control, Mean ± SEM: 106 ± 1.34%
Human neutrophils; 0.3 µM, n=3
  % viability at test concentration vs vehicle control, Mean ± SEM: 105 ± 2.39%
Human neutrophils; 1 µM, n=3
  % viability at test concentration vs vehicle control, Mean ± SEM: 103 ± 4.22%
Human neutrophils; 3 µM, n=3
  % viability at test concentration vs vehicle control, Mean ± SEM: 103 ± 3.07%
Human neutrophils; 10 µM, n=3
  % viability at test concentration vs vehicle control, Mean ± SEM: 102 ± 2.98%
Human neutrophils; 30 μM, cytotoxic if reduction from vehicle ≥20%
  cytotoxic effects: no cytotoxic effects
Human neutrophils; 30 µM, n=3
  % viability at test concentration vs vehicle control, Mean ± SEM: 101 ± 2.58%
Human neutrophils; 100 µM, n=3
  % viability at test concentration vs vehicle control, Mean ± SEM: 86 ± 2.99%
Human neutrophils; 100 µM, n=3, listed as lefamulin
  % viability at test concentration vs vehicle control, Mean ± SEM: 86%
[1]; 0.03 to 30 μM
  IL-8–induced chemotaxis of human neutrophils: no effect
[1]; 0.03 µM
  Neutrophilic chemotaxis, RLU, Mean: 133060 RLU
  Neutrophilic chemotaxis: % reduction: -0.0452%
  Neutrophilic chemotaxis, RLU, single replicates: 133000 RLU and 133120 RLU
[1]; 0.1 µM
  Neutrophilic chemotaxis, RLU, Mean: 130347 RLU
  Neutrophilic chemotaxis: % reduction: 2.26%
  Neutrophilic chemotaxis, RLU, single replicates: 131200 RLU and 127720 RLU and 132120 RLU
[1]; 0.3 µM
  Neutrophilic chemotaxis, RLU, Mean: 132827 RLU
  Neutrophilic chemotaxis: % reduction: 0.153%
  Neutrophilic chemotaxis, RLU, single replicates: 128480 RLU and 128040 RLU and 141960 RLU
[1]; 1 µM
  Neutrophilic chemotaxis, RLU, Mean: 128693 RLU
  Neutrophilic chemotaxis: % reduction: 3.66%
  Neutrophilic chemotaxis, RLU, single replicates: 129760 RLU and 127360 RLU and 128960 RLU
[1]; 3 µM
  Neutrophilic chemotaxis, RLU, Mean: 129147 RLU
  Neutrophilic chemotaxis: % reduction: 3.27%
  Neutrophilic chemotaxis, RLU, single replicates: 127920 RLU and 125520 RLU and 134000 RLU
[1]; 10 µM
  Neutrophilic chemotaxis, RLU, Mean: 129213 RLU
  Neutrophilic chemotaxis: % reduction: 3.22%
  Neutrophilic chemotaxis, RLU, single replicates: 122760 RLU and 130480 RLU and 134400 RLU
[1]; 30 µM
  Neutrophilic chemotaxis, RLU, Mean: 118747 RLU
  Neutrophilic chemotaxis: % reduction: 12%
  Neutrophilic chemotaxis, RLU, single replicates: 115000 RLU and 125400 RLU and 115840 RLU
[1]; 100 µM
  Neutrophilic chemotaxis, RLU, Mean: 73307 RLU
  Neutrophilic chemotaxis: % reduction: 51%
  Neutrophilic chemotaxis, RLU, single replicates: 81720 RLU and 76640 RLU and 61560 RLU
J774.2 mouse macrophages; 30 μM
  cell viability: reduced
J774.2 mouse macrophages; 100 μM
  cell viability: reduced
J774.2 mouse macrophages; 0.03 µM
  fold-change of adenylate kinase release at test concentration vs vehicle control, Mean ± SEM: 1.33 ± 0.11 fold-change
J774.2 mouse macrophages; 0.1 µM
  fold-change of adenylate kinase release at test concentration vs vehicle control, Mean ± SEM: 1.27 ± 0.23 fold-change
J774.2 mouse macrophages; 0.3 µM
  fold-change of adenylate kinase release at test concentration vs vehicle control, Mean ± SEM: 1.10 ± 0.16 fold-change
J774.2 mouse macrophages; 1 µM
  fold-change of adenylate kinase release at test concentration vs vehicle control, Mean ± SEM: 0.89 ± 0.08 fold-change
J774.2 mouse macrophages; 3 µM
  fold-change of adenylate kinase release at test concentration vs vehicle control, Mean ± SEM: 1.12 ± 0.18 fold-change
J774.2 mouse macrophages; 10 µM
  fold-change of adenylate kinase release at test concentration vs vehicle control, Mean ± SEM: 1.26 ± 0.27 fold-change
J774.2 mouse macrophages; 30 µM
  fold-change of adenylate kinase release at test concentration vs vehicle control, Mean ± SEM: 2.00 ± 0.13 fold-change
J774.2 mouse macrophages; 100 µM
  fold-change of adenylate kinase release at test concentration vs vehicle control, Mean ± SEM: 6.18 ± 0.05 fold-change
[2]; 35 mg/kg SC in mice, human data ref 29
  plasma AUC0-24h in mice compared with exposures in healthy volunteers after a single dose of 150 mg IV: comparable
[2]; ELF, mice, single 35 mg/kg SC
  AUC0-24h/Dose, mean: 0.36 (μg∙h/mL)/(mg/kg)
[2]; female, BALB/c, mouse, epithelial lining fluid (ELF) / plasma, mice, single 35 mg/kg SC, read-out: AUC ratio for ELF to plasma
  Kp: ~2
[2]; [3]
  Tmax: 30 min
  AUC(0-t): 12.6 ± 1.17 µg·h/mL
  Cmax: 2.16 ± 0.5 µg/mL
[2]; [4]
  Tmax: 30 min
  AUC(0-t): 6.25 ± 0.93 µg·h/mL
  Cmax: 1.33 ± 0.18 µg/mL
[2]; mice, single SC dose 35 mg/kg
  distribution from plasma to ELF (penetration into the lung compartment): rapid penetration
[2]; plasma, mice, single 35 mg/kg SC
  AUC0-24h/Dose, mean: 0.18 (μg∙h/mL)/(mg/kg)
